Test results reported in ChEMBL document CHEMBL3044767, “GdCl3 promoted synthesis of novel pyrimidine fused indazole derivatives and their anticancer activity” (Med Chem Res, 2012).
In brackets after ≈: the same amount, converted by molar mass.

How the values were obtained:
[1] = tested on: U-937; assay: Cytotoxicity against Homo sapiens (human) U937 cells after 48 hr by MTT assay; assay type: functional, cell-based; settings: U-937, 48 h
[2] = tested on: U-937; assay: Ratio of etoposide IC50 to compound IC50 for Homo sapiens (human) U937 cells after 48 hr by MTT assay; assay type: functional
[3] = tested on: THP-1; assay: Cytotoxicity against Homo sapiens (human) THP1 cells after 48 hr by MTT assay; assay type: functional, cell-based; settings: THP-1, 48 h

Row | SMILES | IC50 [1] [µg/mL] | Ratio IC50 [2] | IC50 [3] [µg/mL]
1 | N#Cc1c(-c2ccccc2)cc(C(F)(F)F)c2c3n(nc12)C(c1ccccc1)C[C@H](c1ccccc1)N3 (some centres not stated) | 7.52 (≈ 15.2 µM) | 1.4 | 
2 | N#Cc1c(C(F)(F)F)cc(-c2ccccc2)c2c3n(nc12)[C@H]1OCCC[C@H]1[C@H](c1ccccc1)N3 | 9.02 (≈ 19 µM) | 1.17 | 79.9 (≈ 168 µM)
3 | C=CC1(C)C[C@H](c2ccccc2)Nc2c3c(-c4ccccc4)cc(C(F)(F)F)c(C#N)c3nn21 (some centres not stated) | 8.7 (≈ 19 µM) | 1.21 | 53.3 (≈ 116 µM)
4 | N#Cc1c(-c2ccccc2)cc(C(F)(F)F)c2c3n(nc12)[C@H]1C=CCC[C@H]1CN3 | 2.64 (≈ 6.69 µM) | 4 | 
5 | N#Cc1c(C(F)(F)F)cc(-c2ccccc2)c2c3n(nc12)[C@H]1OCCC[C@H]1CN3 | 11.2 (≈ 28.2 µM) |  | 33.5 (≈ 84.1 µM)
6 | N#Cc1c(C(F)(F)F)cc(-c2ccccc2)c2c3n(nc12)C(c1ccccc1)CCN3 (configuration not stated) | 7.92 (≈ 18.9 µM) | 1.33 | 
7 | N#Cc1c(-c2ccccc2)cc(C(F)(F)F)c2c3n(nc12)[C@H]1OCCC[C@H]1CN3 | 6.49 (≈ 16.3 µM) | 1.63 | 65.4 (≈ 164 µM)
8 | C=CC1(C)CCNc2c3c(-c4ccccc4)cc(C(F)(F)F)c(C#N)c3nn21 (configuration not stated) | 9.73 (≈ 25.4 µM) | 1.09 | 
9 | N#Cc1c(-c2ccccc2)cc(C(F)(F)F)c2c3n(nc12)C(c1ccccc1)CCN3 (configuration not stated) | 9.36 (≈ 22.4 µM) | 1.13 | 
10 | C=CC1(C)CCNc2c3c(C(F)(F)F)cc(-c4ccccc4)c(C#N)c3nn21 (configuration not stated) | 53.5 (≈ 140 µM) |  | 
